Conditions: Liquid, Ebulliometric method (Recirculating still)

COCC(CO)OC (stereo not given) [2,3-dimethoxy-1-propanol]
Conditions | vapor or sublimation pressure [kPa]
337.95 K | 3.2
368.95 K | 7.84
398.1 K | 19.27
408.55 K | 27.33
413.05 K | 32.46
419.7 K | 38.8
423.55 K | 45.86
431.55 K | 59.8
433.15 K | 65.6
434.85 K | 70.66
437.35 K | 76.53
439.75 K | 83.33
441.65 K | 87.26
444.45 K | 95.73
446.65 K | 100.79

From the NIST ThermoML archive (doi:10.1021/je500606d)
